The values below are quoted from earlier work in US20090298802A1, “Pharmaceutical Compositions” (priority 2005, published 2009).

The subject of one data set is guinea-pig model of COPD. The conditions noted are these: COPD induced by cigarette smoke exposure.
A further data set concerns patients with COPD. As to conditions: 516 patients with COPD, after 26 weeks of dosing, versus placebo recipients.

For the compound `CCOc1ccc(-c2nc(-c3cccc(C(=O)O)n3)cs2)cc1OCC` [Tetomilast], in the data set on guinea-pig model of COPD, the neutrophilia result is listed as “improvements” and the specific airway resistance entry is given as “improvements”.

As to `O=C(Nc1c(Cl)cncc1Cl)c1ccc(OC(F)F)c(OCC2CC2)c1` [Roflumilast], in the data set with patients with COPD, the tolerability profile result is “equivalent to that seen in placebo recipients”.
